Ends that are not written are not given here.
Tests used:
[1] = tested on: sérums d'animaux infectés par le virus BLV; format: binding, bovin, ovin
pseudotypes VSV (BLV) = format: cell-based, virus BLV

## EPRCPYVGADHFDCP (cysteine pairing not given here) [peptide 78-92, séquence 78-92 de la gp51]
[1]
  reconnaissance de l'oligopeptide par les sérums: reconnu à la fois par le sérum bovin (sérum n° 15) et le sérum ovin (sérum n° 65)
Pseudotypes VSV (BLV)
  capacité à inhiber les pseudotypes: remarquable capacité à inhiber les pseudotypes
  induction d'anticorps neutralisants: induire des anticorps neutralisants
